{"source": "paper PMC1977926", "about": "“Human pancreatic cancer cell lines do not express receptors for somatostatin” (British Journal of Cancer, 1992)", "key": {"[1]": {"tested_on": "somatostatin receptors (MiaPaCa-2 membranes)", "assay": "Displacement binding, 125I-SS, MiaPaCa-2 membranes", "design": "species or system human", "conditions": "125I-SS 0.5 nM, unlabelled RC-160 10-6 to 10-11 M, 1 h at 30 C", "from_the_text": "(§1) Br. J. Cancer (1992), 66, 483 487 ? […] Somatostatin (SS) is a tetradecapeptide widely distributed throughout the body, being found in high concentrations in the brain, stomach, intestine and pancreas (Reichlin, 1983). Somatostatin exerts inhibitory actions on the cellular func- tions within a variety of tissues including secretion and growth (Konturek et al., 1988; Meyers & Coy, 1980; Schally, 1988). […] It has therefore been proposed that somatostatin may be capable of inhibiting pancreatic tumour growth indirectly via the suppression of secretion of pancreatic trophic hor- mones and/or by direct effects on the tumour itself (Schally et al., 1988; Liebow et al., 1989). […] For somatostatin to impair directly the growth of pancreatic cancer the cells should therefore express receptors for the peptide. The aim of these study was to determine the somatostatin receptor status of two human (MiaPaCa-2 & Panc-1) and a rat (AR42J) pancreatic cancer cell lines. […] DNA synthesis was assessed for the final 6 h by adding 0.5 liCi 3H-thymi- dine/well. […] Scin- tillation fluid was added to individual filter discs and the cell associated radioactivity counted in a beta counter (Packard 1900CA Tricarb). […] The protein content of the suspension was determined using a bicinchoninic acid kit (Pierce, Rockford, USA)."}, "[2]": {"target": "T1, somatostatin receptors (AR42J membranes) (Rattus norvegicus, UniProt P30680)", "T1 construct": "endogenous in cells; host or cells: AR42J rat pancreatic acinar tumour cell line (membrane preparation)", "T1 sequence (P30680 whole entry)": "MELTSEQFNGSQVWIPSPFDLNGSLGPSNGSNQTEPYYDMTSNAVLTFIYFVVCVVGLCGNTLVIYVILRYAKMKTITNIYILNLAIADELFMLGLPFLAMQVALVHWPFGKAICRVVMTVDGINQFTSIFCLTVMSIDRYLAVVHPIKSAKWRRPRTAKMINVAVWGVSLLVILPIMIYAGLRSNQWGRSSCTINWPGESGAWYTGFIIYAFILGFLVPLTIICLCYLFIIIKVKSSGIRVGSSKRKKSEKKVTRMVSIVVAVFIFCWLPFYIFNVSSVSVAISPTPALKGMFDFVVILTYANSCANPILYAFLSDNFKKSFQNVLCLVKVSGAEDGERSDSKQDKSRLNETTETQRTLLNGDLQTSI", "assay": "Saturation binding, 125I-SS, AR42J membranes", "conditions": "125I-SS 0.05-1 nM, 2 h at 30 C, single class of high affinity binding sites (abstract)", "from_the_text": "as §1"}, "[3]": {"tested_on": "somatostatin receptors (Panc-1 membranes)", "assay": "Displacement binding, 125I-SS, Panc-1 membranes", "design": "species or system human", "conditions": "125I-SS 0.5 nM, unlabelled RC-160 10-6 to 10-11 M, 1 h at 30 C", "from_the_text": "as §1"}, "[4]": {"target": "T1, somatostatin receptors (AR42J membranes)", "assay": "Displacement binding, 125I-SS, AR42J membranes", "conditions": "125I-SS 0.5 nM, 1 h at 30 C", "from_the_text": "as §1"}, "[5]": {"tested_on": "MiaPaCa-2 human ductal pancreatic carcinoma cell line", "assay": "Proliferation of MiaPaCa-2 (3H-thymidine incorporation)", "format": "cell-based", "conditions": "three experiments, five determinations; for Stimulation of growth of MiaPaCa-2: serum free medium, 3H-thymidine incorporation, P<0.01 compared to untreated cells", "from_the_text": "(§2) Br. J. Cancer (1992), 66, 483 487 ? […] Somatostatin (SS) is a tetradecapeptide widely distributed throughout the body, being found in high concentrations in the brain, stomach, intestine and pancreas (Reichlin, 1983). Somatostatin exerts inhibitory actions on the cellular func- tions within a variety of tissues including secretion and growth (Konturek et al., 1988; Meyers & Coy, 1980; Schally, 1988). […] It has therefore been proposed that somatostatin may be capable of inhibiting pancreatic tumour growth indirectly via the suppression of secretion of pancreatic trophic hor- mones and/or by direct effects on the tumour itself (Schally et al., 1988; Liebow et al., 1989). […] For somatostatin to impair directly the growth of pancreatic cancer the cells should therefore express receptors for the peptide. The aim of these study was to determine the somatostatin receptor status of two human (MiaPaCa-2 & Panc-1) and a rat (AR42J) pancreatic cancer cell lines. We have also studied the effects of somatostatin-14 and RC-160 on the proliferation of these three cell lines. Materials and methods Cell growth MiaPaCa-2 and Panc-1 are both human ductal pancreatic carcinoma cell lines and were obtained from the European Cell Culture Collection. AR42J is a rat pancreatic acinar tumour cell line and was kindly provided by Dr S. Watson (Cancer Research Campaign Laboratories, Nottingham Uni- versity). MiaPaCa-2 and Panc-l were routinely grown in Dulbecco's Modified Eagle's Medium (DMEM) containing 10% foetal calf serum (ICN Flow, Irvine). AR42J cells were grown in RPMI 1640 containing 10% FCS (ICN Flow, Irvine). The cells were trypsinised and plated out in 96 well plates at 5 x I04 cells ml-' in serum-free (SF) medium for 24 h. After this period of serum starvation the medium was supple- mented with EGF (Sigma, Dorset) or IGF-I (Peninsula, St Helens) with or without SS-14 (Sigma, Dorset) or RC-160 (Peninsula, St Helens). EGF, IGF-1, SS-14 and RC-160 were added at concentrations described in the Results section. The cells were then incubated for 48 h at 37?C. DNA synthesis was assessed for the final 6 h by adding 0.5 liCi 3H-thymi- dine/well. The cells were then collected onto filter mats using a semi-automatic cell harvester (Inotech, Switzerland). Scin- tillation fluid was added to individual filter discs and the cell associated radioactivity counted in a beta counter (Packard 1900CA Tricarb). Binding studies Binding of ['25I-tyr\"]Somatostatin (Amersham International) was performed on membranes prepared from the three cell lines. Cells were washed twice with phosphate buffered saline (pH 7.4), then removed from 150 cm2 flasks using a cell scraper. […] The protein content of the suspension was determined using a bicinchoninic acid kit (Pierce, Rockford, USA)."}, "[6]": {"tested_on": "pancreatic exocrine secretion of protein and bicarbonate", "conditions": "ref Boden et al., 1975; cited from earlier work", "from_the_text": "(§3) Br. J. Cancer (1992), 66, 483 487 ? […] Summary The in vivo administration of somatostatin (SS) or its analogues is capable of suppressing the growth of pancreatic cancer in experimental animals. We examined the effects of SS-14 and its analogue RC-160 on the in vitro growth of ..."}, "[7]": {"tested_on": "somatostatin receptors in human pancreatic adenocarcinomas", "conditions": "12 fresh adenocarcinomas; ref Reubi et al. (1988); cited from earlier work", "from_the_text": "as §3"}, "[8]": {"tested_on": "hamster experimental pancreatic cancer", "conditions": "ref Redding et al. (1984); cited from earlier work", "from_the_text": "as §3"}, "EGF receptor": {"tested_on": "EGF receptor", "conditions": "ref Hierowski et al., 1985; cited from earlier work", "from_the_text": "as §3"}, "Panc-1": {"tested_on": "Panc-1", "conditions": "unstimulated cells, serum-free medium, one concentration; ref Liehr et al., 1990; cited from earlier work", "from_the_text": "as §3"}, "[9]": {"tested_on": "somatostatin receptors on MiaPaCa-2", "conditions": "no Kd quoted, no total or non-specific binding curves; ref Hierowski et al. (1985); cited from earlier work", "from_the_text": "as §3"}, "[10]": {"tested_on": "rat experimental pancreatic cancer", "conditions": "ref Redding et al. (1984); cited from earlier work", "from_the_text": "as §3"}, "[11]": {"tested_on": "somatostatin binding sites in human pancreatic cancer xenograft", "conditions": "ref Singh and colleagues (1991); cited from earlier work", "from_the_text": "as §3"}, "MiaPaCa-2": {"tested_on": "MiaPaCa-2", "conditions": "cited from earlier work", "from_the_text": "as §3"}, "[12]": {"tested_on": "tyrosine phosphatase activity", "conditions": "in vitro, MiaPaCa-2; ref Liebow et al., 1989; cited from earlier work", "from_the_text": "as §3"}, "[13]": {"tested_on": "endocrine secretion of cholecystokinin, gastrin and secretin", "conditions": "ref Schally et al., 1978; cited from earlier work", "from_the_text": "as §3"}, "[14]": {"tested_on": "Panc-1 human ductal pancreatic carcinoma cell line", "assay": "Proliferation of Panc-1 (3H-thymidine incorporation)", "format": "cell-based", "conditions": "48 h, three experiments, five determinations; for Stimulation of growth of Panc-1: serum free medium, 3H-thymidine incorporation, P<0.01 compared to untreated cells", "from_the_text": "as §2"}}, "note": "Bridge positions count the residues as written; N and C are the ends. Square brackets hold non-standard residues; d marks the D form. Peptide text beside a SMILES is read from it. Tyr(3-I) = N[C@@H](Cc1ccc(O)c(I)c1)C(=O)O"}
{"compound": "C[C@H](N)C(=O)NCC(=O)N[C@H]1CSSC[C@@H](C(=O)O)NC(=O)[C@H](CO)NC(=O)[C@H]([C@@H](C)O)NC(=O)[C@H](Cc2ccc(O)c(I)c2)NC(=O)[C@H]([C@@H](C)O)NC(=O)[C@H](CCCCN)NC(=O)[C@H](Cc2c[nH]c3ccccc23)NC(=O)[C@H](Cc2ccccc2)NC(=O)[C@H](Cc2ccccc2)NC(=O)[C@H](CC(N)=O)NC(=O)[C@H](CCCCN)NC1=O", "note": "[125I-Tyr11 somatostatin] (H-AGCKNFFWKT[Tyr(3-I)]TSC-OH; disulfide 3-14 (inferred); N-terminus and C-terminus assumed)", "values": [{"measurement": "Displaceable binding, MiaPaCa-2", "setting": "[1]", "result": "not displaceable binding was observed"}, {"measurement": "Bmax", "setting": "[2]", "result": "2.1 +/- 0.26 pmoles mg-1 protein"}, {"measurement": "Displaceable binding, Panc-1", "setting": "[3]", "result": "not displaceable binding was observed"}]}
{"compound": "CC(C)[C@@H]1NC(=O)[C@H](CCCCN)NC(=O)[C@@H](Cc2c[nH]c3ccccc23)NC(=O)[C@H](Cc2ccc(O)cc2)NC(=O)[C@@H](NC(=O)[C@H](N)Cc2ccccc2)CSSC[C@@H](C(=O)N[C@@H](Cc2c[nH]c3ccccc23)C(N)=O)NC1=O", "note": "[RC-160] (H-[dF]CY[dW]KVCW-NH2; disulfide 2-7)", "values": [{"measurement": "Displacement of radiolabelled somatostatin from AR42J membranes", "setting": "[4]; unlabelled RC-160 10-6 to 10-11 M, 50 mM Tris, 0.2% BSA, filtration", "result": 95, "unit": "%"}, {"measurement": "IC50", "setting": "[4]; competition, AR42J membranes, non-linear regression", "result": 631, "unit": "pM"}]}
{"compound": "SS-14: Somatostatin (SS) is a tetradecapeptide; SS-14 from Sigma, Dorset", "values": [{"measurement": "Effect on DNA synthesis in EGF stimulated MiaPaCa-2 cells", "setting": "[5]; EGF 10^-8 M, serum free DMEM, 48 h at 37 C, 3H-thymidine for final 6 h, P>0.05 compared to stimulated cells", "result": "neither SS-14 nor RC-160 had any effect on DNA synthesis"}, {"measurement": "Effect on DNA synthesis in IGF-1 stimulated MiaPaCa-2 cells", "setting": "[5]; IGF-1 10^-8 M, serum free, 48 h, 3H-thymidine for final 6 h, P>0.05 compared to stimulated cells", "result": "neither SS-14 nor RC-160 had any effect on DNA synthesis"}, {"measurement": "Inhibition of pancreatic exocrine secretion", "setting": "[6]", "result": "inhibits the pancreatic exocrine secretion of protein and bicarbonate"}, {"measurement": "Specific somatostatin receptors in fresh human pancreatic adenocarcinomas", "setting": "[7]", "result": "none of which contained specific somatostatin receptors"}, {"measurement": "Inhibition of hamster experimental pancreatic cancer growth", "setting": "[8]", "result": "inhibition of both rat and hamster experimental pancreatic cancer growth"}, {"measurement": "Dephosphorylation of the EGF receptor", "setting": "EGF receptor", "result": "causes the dephosphorylation of the EGF receptor"}, {"measurement": "Growth inhibitory effect, Panc-1", "setting": "Panc-1", "result": "no growth inhibitory effect"}, {"measurement": "Bmax, MiaPaCa-2", "setting": "[9]", "result": 3.6, "unit": "fmole mg-' protein"}, {"measurement": "Inhibition of rat experimental pancreatic cancer growth", "setting": "[10]", "result": "inhibition of both rat and hamster experimental pancreatic cancer growth"}, {"measurement": "Specific binding sites in human pancreatic cancer xenograft", "setting": "[11]", "result": "one of these xenografts expressed specific binding sites"}, {"measurement": "Inhibition of EGF-stimulated growth of MiaPaCa-2", "setting": "MiaPaCa-2; in vitro, ref Liebow et al. (1986; 1989)", "result": "all inhibit the EGF- stimulated growth of MiaPaCa-2"}, {"measurement": "Growth inhibitory effect, MiaPaCa-2", "setting": "MiaPaCa-2; unstimulated cells, serum-free medium, one concentration, ref Liehr et al., 1990", "result": "no growth inhibitory effect"}, {"measurement": "Promotion of tyrosine phosphatase activity", "setting": "[12]", "result": "promotion of tyrosine phosphatase activity"}, {"measurement": "Inhibition of endocrine secretion of cholecystokinin, gastrin and secretin", "setting": "[13]", "result": "inhibits the pancreatic exocrine secretion of protein and bicarbonate (Boden et al., 1975) and the endocrine secretion of cholecystokinin, gastrin and secretin"}, {"measurement": "Effect on DNA synthesis in EGF stimulated Panc-1 cells", "setting": "[14]; EGF 10^-8 M, serum free, 3H-thymidine for final 6 h, P>0.05 compared to stimulated cells", "result": "neither SS-14 nor RC-160 had any effect on DNA synthesis"}, {"measurement": "Effect on DNA synthesis in IGF-1 stimulated Panc-1 cells", "setting": "[14]; IGF-1 10^-8 M, serum free, 3H-thymidine for final 6 h, P>0.05 compared to stimulated cells", "result": "neither SS-14 nor RC-160 had any effect on DNA synthesis"}]}
{"compound": "epidermal growth factor [EGF, epidermal growth factor (Sigma, Dorset)]", "values": [{"measurement": "Stimulation of growth of MiaPaCa-2", "setting": "[5]; 48 h", "result": "stimulated the growth of both cell lines (P<0.01 compared to untreated cells), having a more pronounced effect on MiaPaCa-2"}, {"measurement": "Stimulation of growth of Panc-1", "setting": "[14]", "result": "stimulated the growth of both cell lines (P<0.01 compared to untreated cells)"}]}
{"compound": "insulin-like growth factor 1 [IGF-1]", "values": [{"measurement": "Stimulation of growth of MiaPaCa-2", "setting": "[5]; 48 h", "result": "increased the proliferation of the two cell lines (P<0.01 compared to untreated cells)"}, {"measurement": "Stimulation of growth of Panc-1", "setting": "[14]", "result": "increased the proliferation of the two cell lines (P<0.01 compared to untreated cells)"}]}
